Results: the supplement of paper PMC10307832

Assays:
Assay in all cases: relative viability (nuclei count vs DMSO), 5 days (fraction); higher = more cells survive
[1] = test system: NCI-H596
In short: (§1)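 Nuclei were stained with Hoechst during a one-step fixation (final 0.05% Triton X-100, 1% formaldehyde, 1 ug/ml Hoechst) carried out 5 days after dosing, then counted on 4× images. The cells, lung cancer lines in 1536-well plates, had been dosed by pin tool the day after seeding with one drug alone or a fixed anchor-drug dose plus five library-drug doses (not always all listed) in √10 steps. Relative viability is the nuclei count in treated wells divided by that in vehicle wells, and each value is the median of duplicate plates.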

[2] = test system: LU99A
In short: as §1

[3] = test system: SW 1573
In short: as §1

[4] = test system: NCI-H1793
In short: as §1

[5] = test system: NCI-H727
In short: as §1

[6] = test system: NCI-H2170
In short: as §1

[7] = test system: HOP-62
In short: as §1

[8] = test system: NCI-H2228
In short: as §1

[9] = test system: SK-LU-1
In short: as §1

[10] = test system: HARA
In short: as §1

[11] = test system: NCI-H3122
In short: as §1

[12] = test system: COR-L23
In short: as §1

[13] = test system: A-427
In short: as §1

[14] = test system: NCI-H1993
In short: as §1

[15] = test system: LXF-289
In short: as §1

[16] = test system: NCI-H1944
In short: as §1

[17] = test system: SW 900
In short: as §1

[18] = test system: EMC-BAC-2
In short: as §1

[19] = test system: SK-MES-1
In short: as §1

[20] = test system: LK-2
In short: as §1

[21] = test system: ABC-1
In short: as §1

[22] = test system: NCI-H2009
In short: as §1

[23] = test system: PC-3 [JPC-3]
In short: as §1

In the case of CC(C)Oc1cc(Nc2nc(N[C@@H](C)c3ccc(F)cn3)ncc2Cl)n[nH]1 [AZ23] + Cc1cc(Nc2cc(N3CCN(C)CC3)nc(Sc3ccc(NC(=O)C4CC4)cc3)n2)n[nH]1 [Tozasertib] (partner 0.1 µM), the relative viability ([1]; first compound 0.01 µM) is reported as 1, the relative viability ([1]; first compound 0.03162 µM) is reported as 0.826 and the relative viability ([1]; first compound 0.3162 µM) is reported as 0.827. The relative viability ([2]; first compound 0.01 µM) was 0.243, the relative viability ([2]; first compound 0.03162 µM) was 0.286 and the relative viability ([2]; first compound 0.3162 µM) was 0.296. It also gave a relative viability ([3]; first compound 0.01 µM) of 0.168, a relative viability ([3]; first compound 0.03162 µM) of 0.151 and a relative viability ([3]; first compound 0.3162 µM) of 0.17. It also gave a relative viability ([4]; first compound 0.01 µM) of 0.317, a relative viability ([4]; first compound 0.03162 µM) of 0.373 and a relative viability ([4]; first compound 0.3162 µM) of 0.339. For the same compound, the relative viability ([5]; first compound 0.01 µM) was 0.754, the relative viability ([5]; first compound 0.03162 µM) was 0.679 and the relative viability ([5]; first compound 0.3162 µM) was 0.37. For the same compound, the relative viability ([6]; first compound 0.01 µM) was 0.836, the relative viability ([6]; first compound 0.03162 µM) was 0.752 and the relative viability ([6]; first compound 0.3162 µM) was 0.831. The relative viability ([7]; first compound 0.01 µM) was 0.352, the relative viability ([7]; first compound 0.03162 µM) was 0.424 and the relative viability ([7]; first compound 0.3162 µM) was 0.37. The relative viability ([8]; first compound 0.01 µM) was 0.219, the relative viability ([8]; first compound 0.03162 µM) was 0.247 and the relative viability ([8]; first compound 0.3162 µM) was 0.265. The relative viability ([9]; first compound 0.03162 µM) was 0.382, the relative viability ([9]; first compound 0.3162 µM) was 0.335 and the relative viability ([10]; first compound 0.03162 µM) was 0.0837. For the same compound, the relative viability ([10]; first compound 0.3162 µM) was 0.11, the relative viability ([11]; first compound 0.01 µM) was 0.504 and the relative viability ([11]; first compound 0.03162 µM) was 0.456. It also gave a relative viability ([11]; first compound 0.3162 µM) of 0.52, a relative viability ([12]; first compound 0.01 µM) of 0.135 and a relative viability ([12]; first compound 0.03162 µM) of 0.231. For the same compound, the relative viability ([12]; first compound 0.3162 µM) was 0.205, the relative viability ([13]; first compound 0.01 µM) was 0.174 and the relative viability ([13]; first compound 0.03162 µM) was 0.193. It also gave a relative viability ([13]; first compound 0.3162 µM) of 0.177, a relative viability ([14]; first compound 0.01 µM) of 0.593 and a relative viability ([14]; first compound 0.03162 µM) of 0.604. For the same compound, the relative viability ([14]; first compound 0.3162 µM) was 0.548, the relative viability ([15]; first compound 0.01 µM) was 0.222 and the relative viability ([15]; first compound 0.03162 µM) was 0.205. The relative viability ([15]; first compound 0.3162 µM) was 0.204, the relative viability ([16]; first compound 0.01 µM) was 0.279 and the relative viability ([16]; first compound 0.03162 µM) was 0.247. The relative viability ([16]; first compound 0.3162 µM) was 0.243, the relative viability ([17]; first compound 0.01 µM) was 0.536 and the relative viability ([17]; first compound 0.03162 µM) was 0.654. It also gave a relative viability ([17]; first compound 0.3162 µM) of 0.532, a relative viability ([18]; first compound 0.01 µM) of 0.262 and a relative viability ([18]; first compound 0.03162 µM) of 0.28. The relative viability ([18]; first compound 0.3162 µM) was 0.296, the relative viability ([19]; first compound 0.03162 µM) was 1.1 and the relative viability ([19]; first compound 0.3162 µM) was 0.942. For the same compound, the relative viability ([20]; first compound 0.01 µM) was 0.184, the relative viability ([20]; first compound 0.03162 µM) was 0.222 and the relative viability ([20]; first compound 0.3162 µM) was 0.195. The relative viability ([21]; first compound 0.01 µM) was 0.192, the relative viability ([21]; first compound 0.03162 µM) was 0.201 and the relative viability ([21]; first compound 0.3162 µM) was 0.195. For the same compound, the relative viability ([22]; first compound 0.01 µM) was 0.755, the relative viability ([22]; first compound 0.03162 µM) was 0.912 and the relative viability ([22]; first compound 0.3162 µM) was 0.91. For the same compound, the relative viability ([23]; first compound 0.01 µM) was 1.03, the relative viability ([23]; first compound 0.03162 µM) was 0.87 and the relative viability ([23]; first compound 0.3162 µM) was 0.959.

CC(C)Oc1cc(Nc2nc(N[C@@H](C)c3ccc(F)cn3)ncc2Cl)n[nH]1 [AZ23] + O=C(CCCCCCC(=O)Nc1ccccc1)NO [Vorinostat] (partner 1 µM) gave a relative viability ([1]; first compound 0.01 µM) of 0.523, a relative viability ([1]; first compound 0.03162 µM) of 0.622 and a relative viability ([1]; first compound 0.3162 µM) of 0.582. For the same compound, the relative viability ([2]; first compound 0.01 µM) was 0.516, the relative viability ([2]; first compound 0.03162 µM) was 0.6 and the relative viability ([2]; first compound 0.3162 µM) was 0.493. The relative viability ([3]; first compound 0.01 µM) was 0.963, the relative viability ([3]; first compound 0.03162 µM) was 0.881 and the relative viability ([3]; first compound 0.3162 µM) was 0.757. The relative viability ([4]; first compound 0.01 µM) was 0.679, the relative viability ([4]; first compound 0.03162 µM) was 0.811 and the relative viability ([4]; first compound 0.3162 µM) was 0.892. The relative viability ([5]; first compound 0.01 µM) was 1.07, the relative viability ([5]; first compound 0.03162 µM) was 1.13 and the relative viability ([5]; first compound 0.3162 µM) was 1.37. For the same compound, the relative viability ([6]; first compound 0.01 µM) was 0.958, the relative viability ([6]; first compound 0.03162 µM) was 0.937 and the relative viability ([6]; first compound 0.3162 µM) was 0.906. The relative viability ([7]; first compound 0.01 µM) was 0.527, the relative viability ([7]; first compound 0.03162 µM) was 0.765 and the relative viability ([7]; first compound 0.3162 µM) was 0.733. For the same compound, the relative viability ([8]; first compound 0.01 µM) was 0.72, the relative viability ([8]; first compound 0.03162 µM) was 0.585 and the relative viability ([8]; first compound 0.3162 µM) was 0.628. For the same compound, the relative viability ([9]; first compound 0.03162 µM) was 0.801, the relative viability ([9]; first compound 0.3162 µM) was 0.759 and the relative viability ([10]; first compound 0.01 µM) was 0.58. The relative viability ([10]; first compound 0.03162 µM) was 0.471, the relative viability ([10]; first compound 0.3162 µM) was 0.383 and the relative viability ([11]; first compound 0.01 µM) was 1.45. It also gave a relative viability ([11]; first compound 0.03162 µM) of 1.05, a relative viability ([11]; first compound 0.3162 µM) of 1.03 and a relative viability ([12]; first compound 0.01 µM) of 0.164. For the same compound, the relative viability ([12]; first compound 0.03162 µM) was 0.498, the relative viability ([12]; first compound 0.3162 µM) was 0.424 and the relative viability ([13]; first compound 0.01 µM) was 0.699. For the same compound, the relative viability ([13]; first compound 0.03162 µM) was 0.892, the relative viability ([13]; first compound 0.3162 µM) was 0.988 and the relative viability ([14]; first compound 0.01 µM) was 0.634. The relative viability ([14]; first compound 0.03162 µM) was 0.654, the relative viability ([14]; first compound 0.3162 µM) was 0.814 and the relative viability ([15]; first compound 0.01 µM) was 0.949. For the same compound, the relative viability ([15]; first compound 0.03162 µM) was 0.776, the relative viability ([15]; first compound 0.3162 µM) was 0.737 and the relative viability ([16]; first compound 0.01 µM) was 0.409. It also gave a relative viability ([16]; first compound 0.03162 µM) of 0.625, a relative viability ([16]; first compound 0.3162 µM) of 0.631 and a relative viability ([17]; first compound 0.01 µM) of 0.367. The relative viability ([17]; first compound 0.3162 µM) was 0.544, the relative viability ([18]; first compound 0.01 µM) was 0.333 and the relative viability ([18]; first compound 0.03162 µM) was 0.511. The relative viability ([18]; first compound 0.3162 µM) was 0.505, the relative viability ([19]; first compound 0.03162 µM) was 1.22 and the relative viability ([19]; first compound 0.3162 µM) was 1.2. For the same compound, the relative viability ([20]; first compound 0.01 µM) was 0.22, the relative viability ([20]; first compound 0.03162 µM) was 0.216 and the relative viability ([20]; first compound 0.3162 µM) was 0.3. The relative viability ([21]; first compound 0.01 µM) was 0.957, the relative viability ([21]; first compound 0.03162 µM) was 1.15 and the relative viability ([21]; first compound 0.3162 µM) was 1.19. For the same compound, the relative viability ([22]; first compound 0.01 µM) was 0.704, the relative viability ([22]; first compound 0.03162 µM) was 0.787 and the relative viability ([22]; first compound 0.3162 µM) was 0.793. It also gave a relative viability ([23]; first compound 0.01 µM) of 0.721, a relative viability ([23]; first compound 0.03162 µM) of 0.867 and a relative viability ([23]; first compound 0.3162 µM) of 0.826.
